In patent US20250128203A1, “MODIFIED REDOX-ACTIVE SORBENTS FOR ELECTROCHEMICAL CARBON DIOXIDE SEPARATION” (The Johns Hopkins University, priority 2023, published 2025):
“And” between values parts separate entries of the source, which are not always exact repeats. Equal entries are not always repeated. Where two headings read alike, the source gives them in different places.

Legend:
[1] = CO2 binding constant (KCO2) calculated from the shift of the second reduction peak in CV; conditions: for K[CO2] / logK[CO2]: DMF; for ΔEpeak(2): difference between the second reduction peak potentials (IId·−/IId2−) in CO2 and N2
Procedure: (§1) Electrochemical measurements were conducted using a BioLogic VSP potentiostat (BioLogic Science Instruments). For the cyclic voltammetry measurements, glassy carbon (Ø=3 mm) was used as the working electrode, platinum wire was used as the counter electrode, silver wire was used as the pseudo-reference electrode and ferrocene was used as the internal reference. In a standard cyclic voltammetry measurement, the molecule of interest (2.5 mM) was dissolved in anhydrous DMF with 100 mM NBu4PF6 as the supporting salt. Typical cyclic voltammograms were collected at a scan rate of […]. To study the effects of ionic species on the redox behaviour of the sorbent molecules, 100 mM LiClO4, NaClO4, KClO4, NBu4ClO4, sodium triflate (NaOTf), or sodium bis(trifluoromethanesulfonyl)imide (NaTFSI) was used as the supporting electrolyte salt.
The CO2 binding constant (KCO2) was calculated by Eq 1: […]

[2] = UV-vis absorption, optical band gap; assay type: physicochemical; conditions: UV-vis absorption (Kubelka-Munk spectra)
Procedure: UV-vis absorption spectra were recorded on a Thermo Scientific Genesys 10S UV-vis spectrophotometer.

[3] = Cyclic voltammetry of isoindigos in DMF (half-wave redox potentials under N2 or CO2); assay type: physicochemical; conditions: for E1/2 in N2 (first): first half-wave potential vs. Fc^+/Fc; for E1/2 in N2 (first) / E1/2 in N2 (second) / E1/2 in CO2 (first or single) / E1/2 in CO2 (second): 2.5 mM in DMF; for E1/2 in N2 (first) / E1/2 in N2 (second): 0.1 M NBu4PF6, N2, 298 K; for E1/2 in N2 (second) / E1/2 in CO2 (second): second half-wave potential vs. Fc^+/Fc; for E1/2 in CO2 (first or single) / E1/2 in CO2 (second): 0.1 M NBu4PF6, CO2, 298 K; for E1/2 (IId/IId·−) in N2: Table 1, first electron transfer, N2, DMF
Procedure: as §1

[4] = DMF, cited from earlier work; for E1/2 (1) in CO2: first half-wave potential; for E1/2 (1) in CO2 / E1/2 (2) in CO2 / E1/2 (2) in N2: vs. Fc^+/Fc; for E1/2 (1) in CO2 / E1/2 (2) in CO2: under CO2; for E1/2 (2) in CO2 / E1/2 (2) in N2: second half-wave potential; for E1/2 (2) in N2: under N2

Structure (SMILES) | K[CO2] ([1]; 298 K) [M⁻¹] | logK[CO2] ([1]; 298 K) | ΔEpeak(2) [1] [V] | Optical band gap [2] [eV] | E1/2 in N2 (first) [3] | E1/2 in N2 (second) [3] [V] | E1/2 in CO2 (first or single) ([3]; vs. Fc^+/Fc) | E1/2 in CO2 (second) [3] [V] | logKCO2 [4] | E1/2 (1) in CO2 [4] [V] | E1/2 (2) in CO2 [4] [V] | E1/2 (2) in N2 [4] [V] | logK[CO2] ([1]; Table 1) | E1/2 (IId/IId·−) in N2 [3] [V vs. Fc^+/Fc] | Experimental 1st half-wave potential in N2 ([3]; Table 5, vs. Fc^+/Fc) [V] | logKCO2 ([4]; listed as anthraquinone)
O=C1Nc2cc(F)c(F)cc2/C1=C1\C(=O)Nc2cc(F)c(F)cc21 [5566TFIId, 5,5′,6,6′-Tetrafluoroisoindigo] | 2.17e+10 | 10.3 | 0.570 | 2.02 | −1.10, V | −1.68 | −1.1 V |  |  |  |  |  |  |  |  | 
O=C1Nc2ccccc2/C1=C1\C(=O)Nc2cc(C(=O)O)ccc21 [6CIId, Isoindigo-6-carboxylic Acid] | 750 | 2.87 | 0.129 | 2.01 | −1.09, V | −1.35 | −1.06, V | −1.18 |  |  |  |  |  |  |  | 
O=C1C=CC(=O)C=C1 [BQ] |  |  |  |  |  |  |  |  | 18.12 | −0.95 | −0.95 | −1.98 |  |  |  | 
CCCOc1ccc2c(c1)C(=O)c1ccccc1C2=O [AQ-O-C3H7] |  |  |  |  |  |  |  |  | 11.70 | −1.55 | −1.55 | −2.2 |  |  |  | 
O=C1Nc2ccccc2/C1=C1\C(=O)Nc2ccc(Br)cc21 [5BIId, 5-Bromoisoindigo] | 1.12e+09 | 9.05 | 0.494 | 2.04 | −1.19, V | −1.67 | −1.11 V |  |  |  |  |  | 9.05 | −1.19 | −1.19 | 
CCCOC(=O)c1ccc2c(c1)C(=O)c1ccccc1C2=O [AQ-COO- C3H7] |  |  |  |  |  |  |  |  | 2.56 | −1.29 | −1.89 | −2 |  |  |  | 
COC(=O)c1ccc2c(c1)NC(=O)/C2=C1/C(=O)Nc2ccc([N+](=O)[O-])cc21 [5N6MCIId, Methyl-5-nitroisoindigo-6-carboxylate] | 41500 | 4.62 | 0.232 | 2.08 | −0.93 V and −0.93, V | −1.40 | −0.94, V | −1.15 |  |  |  |  |  |  |  | 
O=C1C(Cl)=C(Cl)C(=O)c2ccccc21 [p-NQ-Cl2] |  |  |  |  |  |  |  |  | 2.73 | −0.9 | −1.63 | −1.75 |  |  |  | 
O=C1Nc2ccccc2/C1=C1\C(=O)Nc2cc(Br)ccc21 [6BIId, 6-Bromoisoindigo] | 6.25e+09 | 9.8 | 0.538 | 2.05 | −1.21, V | −1.75 | −1.14 V |  |  |  |  |  |  |  |  | 
O=C1Nc2ccccc2/C1=C1\C(=O)Nc2ccc([N+](=O)[O-])cc21 [5NIId, 5-Nitroisoindigo] | 7.63e+08 | 8.88 | 0.484 | 2.07 | −1.08 V and −1.08, V | −1.57 | −1.08 V |  |  |  |  |  |  |  |  | 
COc1ccc2c(c1)/C(=C1\C(=O)Nc3ccc(OC)cc31)C(=O)N2 [55DMIId, 5,5′-Dimethoxylisoindigo] | 1.13e+09 | 9.05 | 0.494 | 1.78 | −1.29 V and −1.29, V | −1.76 | −1.2 V |  |  |  |  |  | 9.05 | −1.29 |  | 
CC1=C(C)C(=O)C(C)=C(C)C1=O [DBQ] |  |  |  |  |  |  |  |  | 17.61 | −1.39 | −1.39 | −2.39 |  |  |  | 
O=C1C=C(Cl)C(=O)C(Cl)=C1 [BQ-Cl2] |  |  |  |  |  |  |  |  | 1.86 | −0.7 | −1.59 | −1.66 |  |  |  | 
O=C1c2ccccc2C(=O)c2ccccc21 [AQ, anthraquinone] |  |  |  |  |  |  |  |  | 13.39 | −1.4 | −1.4 | −2.15 |  |  |  | approximately 13.4
COc1ccc2c(c1)/C(=C1\C(=O)Nc3ccc([N+](=O)[O-])cc31)C(=O)N2 [5M5NIId, 5-Methoxyl-5′-nitroisoindigo] | 4.45e+08 | 8.65 | 0.470 | 1.71 | −1.08 V and −1.08, V | −1.55 | −1.08 V |  |  |  |  |  |  |  |  | 
CC(C)(C)C1=CC(=O)C=C(C(C)(C)C)C1=O [TBQ] |  |  |  |  |  |  |  |  | 18.29 | −1.25 | −1.25 | −2.29 |  |  |  | 
COC(=O)c1ccc2c(c1)NC(=O)/C2=C1/C(=O)Nc2cc(Br)ccc21 [6B6MCIId, Methyl 6-bromoisoindigo-6′-carboxylate] | 8.34e+08 | 8.92 | 0.486 | 2.02 | −1.05, V | −1.55 | −1.05 V |  |  |  |  |  |  |  |  | 
O=C1C=CC(=O)c2ccccc21 [p-NQ] |  |  |  |  |  |  |  |  | 14.74 | −1.23 | −1.23 | −2.06 |  |  |  | 
O=C1C(Cl)=C(Cl)C(=O)C(Cl)=C1Cl [BQ-Cl4] |  |  |  |  |  |  |  |  | 1.28 | −0.48 | −1.38 | −1.42 |  |  |  | 
O=C1c2ccccc2C(=O)c2cc(Cl)ccc21 [AQ-Cl] |  |  |  |  |  |  |  |  | 2.73 | −1.25 | −1.88 | −2 |  |  |  | 
